{
  "source": "patent US20120046258A1",
  "about": "“NOVEL CRYSTALLINE PHARMACEUTICAL PRODUCT” (GLAXO GROUP LIMITED, priority 2005, published 2012)",
  "assay": "Anderson Cascade impaction analysis of dry powder blend in blister strip",
  "assay_type": "physicochemical",
  "conditions": "0.8% w/w drug in milled lactose blend, 13 mg per blister",
  "protocol": "A blend was prepared containing 0.8% w/w 6α,9α-difluoro-17α-[(2-furanylcarbonyl)oxy]-11β-hydroxy-16α-methyl-3-oxo-androsta-1,4-diene-17β-carbothioic acid S-fluoromethyl ester, prepared as particles according to the invention, and 99.2% w/w milled lactose (wherein the mean particle size is of the range 60-90 μm, and not greater than 15% of particles have a MMD of less than 15 μm).\nThe above composition was blended for 10 minutes at 600 rpm in a 2.5 litre bowl QMM Micromixer. A peelable blister strip containing 14 blisters, each filled with 13 mg of the powder formulation described above was prepared.\nAnderson Cascade impaction analysis of this product was performed initially and after 1 month storage at 30° C. and 65% relative humidity as shown in Table 1 below.",
  "data": [
    {"smiles": "C[C@]12C[C@H](O)[C@@]3(F)C(C[C@H](F)C4=CC(=O)C=C[C@@]43C)C1C[C@](C)(OC(=O)c1ccco1)[C@@H]2C(=O)SCF", "note": "(some centres unmarked) [Micronised Drug, reference compound]", "values": [
      {"measurement": "Respirable fraction (% of Total Emitted Dose)", "setting": "1 month @ 30° C./65% Relative Humidity", "result": "25.1 % of Total Emitted Dose"},
      {"measurement": "Respirable fraction (% of Total Emitted Dose)", "setting": "Initial", "result": "26.6 % of Total Emitted Dose"}
    ]}
  ]
}
